Assays:
Neuraminidase = Neuraminidase (Influenza A virus, UniProt B4URF0); experiment: Inhibition of influenza A virus neuraminidase
Influenza A virus [1] = experiment: Antiviral activity against oseltamivir sensitive wild type Influenza A virus A/Brisbane/59/2007 infected infected in dog MDCK cells assessed as inhibition of viral growth incubated for 4 days by neutral red dye-based assay; type: functional; details: A/Brisbane/59/2007, MDCK, 96 h, time 4 day, read-out: ED50 (the source's name)
[2] = Inhibition of influenza A virus A/Singapore/157 neuraminidase using 2'-(4-methylumbelliferyl)-alpha-D-acetylneuraminic acid as substrate incubated for 10 to 30 mins by fluorescence-based assay
[3] = Inhibition of influenza B virus B/Victoria/70 neuraminidase using 2'-(4-methylumbelliferyl)-alpha-D-acetylneuraminic acid as substrate incubated for 10 to 30 mins by fluorescence-based assay
[4] = Inhibition of Newcastle disease virus neuraminidase using 4-MUNeu5Ac as substrate assessed as reduction in neuraminidase activity incubated for 15 mins by spectrofluorometric analysis
[5] = Inhibition of influenza A virus A/Anhui/1/2005 H5N1 using MUNANA as substrate preincubated for 45 mins followed by substrate addition by fluorescence based assay
[6] = target: Neuraminidase (Influenza A virus (A/Puerto Rico/8/1934(H1N1)), UniProt P03468); experiment: Binding affinity to influenza A virus H1N1 (A/Norway/1758/07) neuraminidase using MUNANA as substrate assessed as inhibition constant
[7] = Inhibition of hPIV-3 Haemagglutinin-neuraminidase infected in human red blood cells incubated for 90 mins by haemagglutination assay; type: cell-based, RBC; details: Human respirovirus 3, Erythrocyte, 1.5 h
[8] = Inhibition of influenza A virus H5N1 (A/Anhui/2005) neuraminidase using fluorogenic MUNANA as substrate
Influenza A virus [9] = experiment: Antiviral activity against Influenza A virus; type: functional, organism-based
Influenza B virus = experiment: Antiviral activity against Influenza B virus; type: functional, organism-based
[10] = Inhibition of influenza A virus H12N5 A/Duck/Alberta/60/1976 neuraminidase using MUNANA as substrate incubated for 30 mins followed by substrate addition by fluorescence based assay
[11] = target: Neuraminidase (Influenza A virus (A/Memphis/1/1971(H3N2)), UniProt P03471); experiment: Inhibition of influenza A virus H3N2 (A/Moscow/10/99) neuraminidase using MUNANA as substrate preincubated for 30 mins followed by substrate addition by fluorescence-based assay
[12] = Binding affinity to influenza A virus A/HongKong/156/97 (H5N1) neuraminidase using fluorogenic MUN as substrate assessed as inhibition constant
[13] = Inhibition of Influenza A virus H7N9 VLP neuraminidase using MUNANA as substrate
Influenza A virus [14] = experiment: Antiviral activity against influenza A virus A/Hong Kong/1/68 (HK1, H3N2) infected in dog MDCK cells assessed as cytopathic effect; type: functional, organism-based

Chain of Neuraminidase (B4URF0 whole entry): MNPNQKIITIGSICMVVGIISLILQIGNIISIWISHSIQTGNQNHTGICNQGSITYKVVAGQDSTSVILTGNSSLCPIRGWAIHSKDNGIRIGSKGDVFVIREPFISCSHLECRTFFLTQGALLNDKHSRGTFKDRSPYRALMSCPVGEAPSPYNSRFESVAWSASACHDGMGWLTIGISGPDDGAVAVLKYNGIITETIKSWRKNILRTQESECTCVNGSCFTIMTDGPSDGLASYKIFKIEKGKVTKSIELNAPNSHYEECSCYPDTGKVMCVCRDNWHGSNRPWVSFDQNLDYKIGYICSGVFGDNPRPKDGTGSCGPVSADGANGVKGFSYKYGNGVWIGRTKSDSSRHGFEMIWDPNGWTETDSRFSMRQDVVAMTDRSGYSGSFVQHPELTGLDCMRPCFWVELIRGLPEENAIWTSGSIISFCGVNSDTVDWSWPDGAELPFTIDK
Chain of Neuraminidase (Influenza A virus (A/Puerto Rico/8/1934(H1N1)), UniProt P03468) (P03468 whole entry): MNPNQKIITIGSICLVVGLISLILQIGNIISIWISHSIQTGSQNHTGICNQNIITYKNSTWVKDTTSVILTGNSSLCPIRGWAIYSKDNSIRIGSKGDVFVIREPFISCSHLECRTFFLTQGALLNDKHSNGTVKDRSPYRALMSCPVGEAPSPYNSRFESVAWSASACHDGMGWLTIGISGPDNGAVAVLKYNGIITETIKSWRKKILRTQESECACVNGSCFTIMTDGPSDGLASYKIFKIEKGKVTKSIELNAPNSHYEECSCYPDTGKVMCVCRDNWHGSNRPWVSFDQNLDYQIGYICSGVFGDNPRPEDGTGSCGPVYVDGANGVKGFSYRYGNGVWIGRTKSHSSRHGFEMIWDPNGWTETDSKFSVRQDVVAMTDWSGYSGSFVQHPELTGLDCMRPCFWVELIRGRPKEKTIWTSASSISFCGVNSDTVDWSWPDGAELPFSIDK
Chain of Neuraminidase (Influenza A virus (A/Memphis/1/1971(H3N2)), UniProt P03471) (P03471 whole entry): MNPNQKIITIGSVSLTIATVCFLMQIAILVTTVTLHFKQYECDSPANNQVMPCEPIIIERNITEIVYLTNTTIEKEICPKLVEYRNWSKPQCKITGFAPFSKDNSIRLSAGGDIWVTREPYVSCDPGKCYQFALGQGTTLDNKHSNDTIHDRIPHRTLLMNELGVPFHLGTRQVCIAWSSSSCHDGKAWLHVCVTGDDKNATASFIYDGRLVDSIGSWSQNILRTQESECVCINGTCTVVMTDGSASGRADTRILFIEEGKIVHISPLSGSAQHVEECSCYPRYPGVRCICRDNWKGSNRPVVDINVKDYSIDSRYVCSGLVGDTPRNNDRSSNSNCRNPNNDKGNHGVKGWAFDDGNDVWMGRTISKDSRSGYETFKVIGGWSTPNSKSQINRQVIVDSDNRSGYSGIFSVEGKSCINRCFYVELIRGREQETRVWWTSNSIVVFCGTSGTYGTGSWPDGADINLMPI

## CCO[C@@H]([C@@H]1OC(C(=O)O)=C[C@H](N=C(N)N)[C@H]1NC(C)=O)[C@H](O)CO
Neuraminidase
  IC50: 73.3 nM

## CCCCCCCCO[C@@H]([C@@H]1OC(C(=O)O)=C[C@H](N=C(N)N)[C@H]1NC(C)=O)[C@H](O)CO
Neuraminidase
  IC50: 45.5 nM

## CCCCCO[C@@H]([C@@H]1OC(C(=O)O)=C[C@H](N=C(N)N)[C@H]1NC(C)=O)[C@H](O)CO
Neuraminidase
  IC50: 35.6 nM

## CCCCCCCCCCCCO[C@@H]([C@@H]1OC(C(=O)O)=C[C@H](N=C(N)N)[C@H]1NC(C)=O)[C@H](O)CO
Neuraminidase
  IC50: 99.2 nM

## CCCO[C@@H]([C@@H]1OC(C(=O)O)=C[C@H](N=C(N)N)[C@H]1NC(C)=O)[C@H](O)CO
Neuraminidase
  IC50: 81.8 nM

## CCC(CC)O[C@@H]1CC(C(=O)O)=C[C@H](N)[C@H]1NC(C)=O
Influenza A virus [1]
  EC50: 12 µM

## CCC(CC)O[C@@H]1CC(C(=O)O)=C[C@H](NC(=N)N)[C@H]1NC(C)=O
Influenza A virus [1]
  EC50: 3.9 µM

## CCC(CC)[C@H](NC(C)=O)[C@@H]1C[C@@H](C(=O)O)C[C@H]1N=C(N)N
[2]
  IC50: < 10 nM
[3]
  IC50: < 10 nM

## CO[C@@H]([C@@H]1OC(C(=O)O)=C[C@H](NC(=N)N)[C@H]1NC(C)=O)[C@H](O)CO
Neuraminidase
  IC50: 17.6 nM

## O=C(O)C1=C[C@H](NC(=O)C(F)(F)F)[C@H](NC(=O)C(F)(F)F)[C@H]([C@@H](O)[C@H](O)CO)O1
[4]
  IC50: 30 nM

## CCC(CC)O[C@@H]1C2C([C@@H]2C(=O)O)[C@@H](NCc2ccccc2)[C@H]1NC(C)=O (stereo partly specified)
[5]
  IC50: 10 µM

## CCC(CC)O[C@@H]1C=C(P(=O)(O)O[C@H]2[C@@H](O)[C@@H](CO)O[C@@H](OC)[C@@H]2O)C[C@H](N)[C@H]1NC(C)=O
[6]
  Ki: 0.29 nM

## CC(C)C(=O)N[C@H]1[C@H]([C@H](O)[C@H](O)CO)OC(C(=O)O)=C(n2cc(-c3ccccc3C(=O)O)nn2)[C@@H]1O
[7]
  IC50: 3.9 µM

## CCC(CC)O[C@@H]1C=C(C(=O)O)C[C@H](NS(C)(=O)=O)[C@H]1NC(C)=O
[8]
  IC50: 3.5 µM

## CNC(=N)N[C@H]1C=C(C(=O)O)O[C@@H]([C@H](O)[C@H](O)CO)[C@@H]1NC(C)=O
Influenza A virus [9]
  IC50: 4.59 µM
Influenza B virus
  IC50: 4.59 µM

## CCC(CC)O[C@@H]1C=C(C(=O)O)C[C@H](n2nncc2-c2cccc(N)c2)[C@H]1NC(C)=O
[10]
  IC50: 45 nM
[11]
  IC50: 19 nM

## CC(=O)N[C@H]1[C@H]([C@H](O)[C@H](O)CO)OC(C(=O)O)=C(C/C=C/c2cccc3ccccc23)[C@@H]1O
[12]
  Ki: 9.3 µM

## N=C(N)N[C@@H]1[C@@H](NC(=O)C(F)(F)F)[C@H]([C@H](OC(=O)NCCn2cc(COC[C@H]3O[C@@H](O[C@H]4[C@H](OCc5cn(CCNC(=O)O[C@@H]([C@@H]6O[C@@](F)(C(=O)O)[C@H](F)[C@H](NC(=N)N)[C@H]6NC(=O)C(F)(F)F)[C@H](O)CO)nn5)[C@@H](OCc5cnnn5CCNC(=O)O[C@@H]([C@@H]5O[C@@](F)(C(=O)O)[C@H](F)[C@H](NC(=N)N)[C@H]5NC(=O)C(F)(F)F)[C@H](O)CO)[C@H](OCc5cn(CCNC(=O)O[C@@H]([C@@H]6O[C@@](F)(C(=O)O)[C@H](F)[C@H](NC(=N)N)[C@H]6NC(=O)C(F)(F)F)[C@H](O)CO)nn5)O[C@@H]4COCc4cn(CCNC(=O)O[C@@H]([C@@H]5O[C@@](F)(C(=O)O)[C@H](F)[C@H](NC(=N)N)[C@H]5NC(=O)C(F)(F)F)[C@H](O)CO)nn4)[C@H](OCc4cn(CCNC(=O)O[C@@H]([C@@H]5O[C@@](F)(C(=O)O)[C@H](F)[C@H](NC(=N)N)[C@H]5NC(=O)C(F)(F)F)[C@H](O)CO)nn4)[C@@H](OCc4cn(CCNC(=O)O[C@@H]([C@@H]5O[C@@](F)(C(=O)O)[C@H](F)[C@H](NC(=N)N)[C@H]5NC(=O)C(F)(F)F)[C@H](O)CO)nn4)[C@H]3OCc3cn(CCNC(=O)O[C@@H]([C@@H]4O[C@@](F)(C(=O)O)[C@H](F)[C@H](NC(=N)N)[C@H]4NC(=O)C(F)(F)F)[C@H](O)CO)nn3)nn2)[C@H](O)CO)O[C@@](F)(C(=O)O)[C@@H]1F
[13]
  IC50: 30.6 nM

## CCC(CC)O[C@@H]1C2C([C@@H]2C(=O)O)[C@@H](NCc2ccc(-c3ccccc3)cc2)[C@H]1NC(C)=O (stereo partly specified)
[5]
  IC50: 10 µM

## CCOC(=O)NC(=N)N[C@H]1C=C(C(=O)O)O[C@@H]([C@H](O)[C@H](O)CO)[C@@H]1NC(C)=O
Influenza A virus [9]
  IC50: 4.59 µM
Influenza B virus
  IC50: 4.59 µM

## CC(=O)N[C@H]1[C@H]([C@H](O)[C@H](O)CO)OC(C(=O)O)=C[C@@H]1NC(=N)NN
Influenza A virus [9]
  IC50: 4.59 µM
Influenza B virus
  IC50: 4.59 µM

## CC(=O)N[C@H]1[C@H]([C@H](O)[C@H](O)CO)OC(C(=O)O)=C[C@@H]1NC(=N)N[N+](=O)[O-]
Influenza A virus [9]
  IC50: 4.59 µM
Influenza B virus
  IC50: 4.59 µM

## Cc1ccc(C(=O)N[C@H]2C=C(C(=O)O)O[C@@H]([C@@H](O)[C@H](O)CO)[C@H]2NC(=O)C(F)(F)F)cc1
[4]
  IC50: 30 nM

## CCC(CC)O[C@@H]1C=C(P(=O)(O)OC[C@H]2O[C@@H](OC)[C@H](O)[C@@H](O)[C@H]2O)C[C@H](N)[C@H]1NC(C)=O
[6]
  Ki: 0.74 nM

## [N-]=[N+]=N[C@H]1C=C(C(=O)O)O[C@@H]([C@@H](O)[C@H](O)CO)[C@H]1NC(=O)C(F)(F)C(F)(F)C(F)(F)F
[4]
  IC50: 30 nM

## [N-]=[N+]=N[C@H]1C=C(C(=O)O)O[C@@H]([C@@H](O)[C@H](O)CO)[C@H]1NC(=O)C(F)(F)F
[4]
  IC50: 30 nM

## CCC(CC)O[C@@H]1C=C(C(=O)O)[C@@H](n2cc(C(O)CC)nn2)[C@H](N)[C@H]1NC(C)=O (stereo partly specified)
Influenza A virus [14]
  IC50: 100 nM

## CC(=O)N[C@H]1[C@H]([C@H](O)[C@H](O)CO)OC(C(=O)O)=C[C@@H]1NC(=N)NO
Influenza A virus [9]
  IC50: 4.59 µM
Influenza B virus
  IC50: 4.59 µM

## CCC(CC)O[C@@H]1C2C([C@@H]2C(=O)O)[C@@H](O)[C@H]1NC(C)=O (stereo partly specified)
[5]
  IC50: 10 µM

— ChEMBL document CHEMBL5321229, “Conformationally locked sugar derivatives and analogues as potential neuraminidase inhibitors” (Eur J Med Chem, 2023)
